# Values quoted from earlier work in PMC9516332 (Frontiers in Oncology, 2022).
# Read-outs that look alike come from different tables or passages of the source.
# Legend:
# Details in all cases: cited from earlier work
# [1] = target: panel of 255 wild-type kinases (Homo sapiens, UniProt Q16644)
# [2] = target: panel of 255 wild-type kinases (Homo sapiens, UniProt P22455)
# [3] = target: T1, panel of 255 wild-type kinases (Homo sapiens, UniProt Q9UHD2)
# T1 sequence (Q9UHD2 1-729): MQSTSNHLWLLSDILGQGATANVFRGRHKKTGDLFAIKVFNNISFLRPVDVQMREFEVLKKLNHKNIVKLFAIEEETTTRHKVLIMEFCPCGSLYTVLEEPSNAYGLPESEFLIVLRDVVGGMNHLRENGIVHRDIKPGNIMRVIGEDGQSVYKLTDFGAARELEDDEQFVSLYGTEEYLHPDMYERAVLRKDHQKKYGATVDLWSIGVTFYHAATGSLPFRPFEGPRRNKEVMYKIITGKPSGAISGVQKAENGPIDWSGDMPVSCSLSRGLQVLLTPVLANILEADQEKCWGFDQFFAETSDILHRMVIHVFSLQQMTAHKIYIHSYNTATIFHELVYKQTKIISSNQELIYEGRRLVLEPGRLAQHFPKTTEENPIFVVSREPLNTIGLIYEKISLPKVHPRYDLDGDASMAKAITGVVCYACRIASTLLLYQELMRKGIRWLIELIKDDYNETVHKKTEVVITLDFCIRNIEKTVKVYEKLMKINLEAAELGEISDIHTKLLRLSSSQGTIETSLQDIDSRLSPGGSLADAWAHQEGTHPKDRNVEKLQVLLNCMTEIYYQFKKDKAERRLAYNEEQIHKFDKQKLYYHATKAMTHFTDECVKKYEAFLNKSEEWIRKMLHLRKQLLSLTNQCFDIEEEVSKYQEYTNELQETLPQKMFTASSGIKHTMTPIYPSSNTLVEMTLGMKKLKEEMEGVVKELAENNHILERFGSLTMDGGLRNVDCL
# [4] = target: T2, panel of 255 wild-type kinases (Homo sapiens, UniProt Q8TD19)
# T2 sequence (Q8TD19 1-979): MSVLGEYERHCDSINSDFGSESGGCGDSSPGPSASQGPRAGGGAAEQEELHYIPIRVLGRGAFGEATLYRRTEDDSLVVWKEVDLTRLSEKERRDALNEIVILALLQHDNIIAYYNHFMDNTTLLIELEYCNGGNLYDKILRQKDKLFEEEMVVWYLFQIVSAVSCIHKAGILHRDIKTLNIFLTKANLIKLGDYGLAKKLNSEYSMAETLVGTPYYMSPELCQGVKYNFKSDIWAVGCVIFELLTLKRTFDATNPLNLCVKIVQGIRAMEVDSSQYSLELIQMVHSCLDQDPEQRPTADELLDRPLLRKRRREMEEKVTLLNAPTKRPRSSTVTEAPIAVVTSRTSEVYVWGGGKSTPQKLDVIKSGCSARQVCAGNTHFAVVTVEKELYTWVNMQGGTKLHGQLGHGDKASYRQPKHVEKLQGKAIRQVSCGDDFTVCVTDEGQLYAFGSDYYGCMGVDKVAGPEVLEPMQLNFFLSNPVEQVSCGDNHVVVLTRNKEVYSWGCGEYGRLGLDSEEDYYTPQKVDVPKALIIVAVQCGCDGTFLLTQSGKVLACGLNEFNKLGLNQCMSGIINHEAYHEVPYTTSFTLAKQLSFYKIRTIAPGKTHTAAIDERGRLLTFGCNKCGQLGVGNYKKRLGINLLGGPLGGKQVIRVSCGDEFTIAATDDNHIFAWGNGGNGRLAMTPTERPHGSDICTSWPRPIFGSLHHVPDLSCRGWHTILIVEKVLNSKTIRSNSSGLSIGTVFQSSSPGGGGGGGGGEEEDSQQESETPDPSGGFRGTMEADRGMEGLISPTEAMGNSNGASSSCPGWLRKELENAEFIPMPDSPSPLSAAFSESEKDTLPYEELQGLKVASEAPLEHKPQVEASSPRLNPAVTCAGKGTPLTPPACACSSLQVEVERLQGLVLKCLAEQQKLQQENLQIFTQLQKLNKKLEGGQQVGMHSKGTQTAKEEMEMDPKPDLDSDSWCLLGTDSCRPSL
# [5] = target: T3, panel of 255 wild-type kinases (Homo sapiens, UniProt Q96L34)
# T3 sequence (Q96L34 1-752): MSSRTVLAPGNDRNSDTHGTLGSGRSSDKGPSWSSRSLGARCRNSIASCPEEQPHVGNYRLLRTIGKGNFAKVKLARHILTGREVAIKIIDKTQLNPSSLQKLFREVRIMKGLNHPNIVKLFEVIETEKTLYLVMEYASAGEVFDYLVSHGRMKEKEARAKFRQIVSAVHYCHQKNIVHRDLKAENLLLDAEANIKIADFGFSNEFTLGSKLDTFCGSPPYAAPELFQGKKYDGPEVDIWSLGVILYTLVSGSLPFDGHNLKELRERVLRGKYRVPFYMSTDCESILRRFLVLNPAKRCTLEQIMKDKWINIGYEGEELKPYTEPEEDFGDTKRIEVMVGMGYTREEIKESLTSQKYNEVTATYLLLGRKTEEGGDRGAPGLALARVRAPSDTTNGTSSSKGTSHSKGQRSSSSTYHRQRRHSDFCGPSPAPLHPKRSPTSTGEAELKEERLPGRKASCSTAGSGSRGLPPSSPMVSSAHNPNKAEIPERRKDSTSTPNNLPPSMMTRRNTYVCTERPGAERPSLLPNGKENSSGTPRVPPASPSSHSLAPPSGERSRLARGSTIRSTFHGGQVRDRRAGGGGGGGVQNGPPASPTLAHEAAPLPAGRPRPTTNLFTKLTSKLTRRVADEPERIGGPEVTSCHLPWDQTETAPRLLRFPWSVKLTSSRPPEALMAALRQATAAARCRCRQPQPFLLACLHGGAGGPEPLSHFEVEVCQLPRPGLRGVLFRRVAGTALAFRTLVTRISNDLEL
# [6] = target: panel of 255 wild-type kinases (Homo sapiens, UniProt P45984)
# [7] = MAPKAPK3, 1 µmol/L single concentration, ref DOI: 10.1158/1535-7163.MCT-18-0877
# [8] = kinase FGFR4, 1 µmol/L single concentration, ref DOI: 10.1158/1535-7163.MCT-18-0877
# [9] = kinase TBK1, 1 µmol/L single concentration, ref DOI: 10.1158/1535-7163.MCT-18-0877
# [10] = NEK9, 1 µmol/L single concentration, ref DOI: 10.1158/1535-7163.MCT-18-0877
# [11] = MARK4, 1 µmol/L single concentration, ref DOI: 10.1158/1535-7163.MCT-18-0877
# [12] = kinase JNK2, 1 µmol/L single concentration, ref DOI: 10.1158/1535-7163.MCT-18-0877
# [13] = MAPKAPK3, 1 µmol/L single concentration, ref DOI: 10.1371/journal.pone.0092146
# [14] = kinase FGFR4, 1 µmol/L single concentration, ref DOI: 10.1371/journal.pone.0092146
# [15] = kinase TBK1, 1 µmol/L single concentration, ref DOI: 10.1371/journal.pone.0092146
# [16] = NEK9, 1 µmol/L single concentration, ref DOI: 10.1371/journal.pone.0092146
# [17] = MARK4, 1 µmol/L single concentration, ref DOI: 10.1371/journal.pone.0092146
# [18] = kinase JNK2, 1 µmol/L single concentration, ref DOI: 10.1371/journal.pone.0092146
Structure (SMILES),"%-inhibition, MAPKAPK3 [1, 7]","%-inhibition at 1 µmol/L, FGFR4 [2, 8]","%-inhibition at 1 µmol/L, TBK1 [3, 9]","%-inhibition, NEK9 [4, 10]","%-inhibition, MARK4 [5, 11]","%-inhibition at 1 µmol/L, JNK2 [6, 12]","%-inhibition, MAPKAPK3 [1, 13]","%-inhibition at 1 µmol/L, FGFR4 [2, 14]","%-inhibition at 1 µmol/L, TBK1 [3, 15]","%-inhibition, NEK9 [4, 16]","%-inhibition, MARK4 [5, 17]","%-inhibition at 1 µmol/L, JNK2 [6, 18]",further results
O=C(c1ccc(F)c(F)c1Nc1ccc(I)cc1F)N1CC(O)([C@@H]2CCCCN2)C1 [cobimetinib],1.42%,-0.0569%,4%,-2.32%,-15%,-2.51%,–,–,–,–,–,–,–
CC(C)(C)c1nc(-c2cccc(NS(=O)(=O)c3c(F)cccc3F)c2F)c(-c2ccnc(N)n2)s1 [dabrafenib],–,–,–,–,–,–,-11%,19%,-1.15%,101%,-27%,-0.947%,–
Cc1cc(Nc2ncc(Cl)c(Nc3ccccc3S(=O)(=O)C(C)C)n2)c(OC(C)C)cc1C1CCNCC1 [ceritinib],-10%,69%,4%,9%,-2.63%,16%,–,–,–,–,–,–,–
CCc1cc2c(cc1N1CCC(N3CCOCC3)CC1)C(C)(C)c1[nH]c3cc(C#N)ccc3c1C2=O [alectinib],-0.429%,4%,6%,0.368%,-3%,-0.468%,–,–,–,–,–,–,–
CCCS(=O)(=O)Nc1ccc(F)c(C(=O)c2c[nH]c3ncc(-c4ccc(Cl)cc4)cc23)c1F [vemurafenib],–,–,–,–,–,–,12%,5%,-0.81%,-2.2%,3.78%,-0.0632%,–
COc1cc(N2CCC(N3CCN(C)CC3)CC2)ccc1Nc1ncc(Cl)c(Nc2ccccc2P(C)(C)=O)n1 [brigatinib],–,–,–,–,–,–,–,–,–,–,–,–,"%-inhibition, MAPKAPK3 [1]: -0.903%; %-inhibition at 1 µmol/L, FGFR4 [2]: 82%; %-inhibition at 1 µmol/L, TBK1 [3]: 23%; %-inhibition, NEK9 [4]: 70%; %-inhibition, MARK4 [5]: 101%; %-inhibition at 1 µmol/L, JNK2 [6]: 50%"
CC(=O)Nc1cccc(-n2c(=O)n(C3CC3)c(=O)c3c(Nc4ccc(I)cc4F)n(C)c(=O)c(C)c32)c1 [trametinib],–,–,–,–,–,–,-9%,-3%,-4.47%,-3%,-15%,-4.73%,–
CC#CC(=O)N1CCC[C@H]1c1nc(-c2ccc(C(=O)Nc3ccccn3)cc2)c2c(N)nccn12 [acalabrutinib],-11%,-9%,2.14%,-3.18%,-15%,-1.85%,–,–,–,–,–,–,–
C=CC(=O)Nc1cc(Nc2nccc(-c3cn(C)c4ccccc34)n2)c(OC)cc1N(C)CCN(C)C [osimertinib],-9%,11%,9%,9%,-13%,-2.75%,–,–,–,–,–,–,–
CO[C@@H]1[C@H](N(C)C(=O)c2ccccc2)C[C@H]2O[C@]1(C)n1c3ccccc3c3c4c(c5c6ccccc6n2c5c31)C(=O)NC4 [midostaurin],-7%,38%,98%,48%,101%,8%,–,–,–,–,–,–,–
C=CC(=O)N1CCC[C@@H](n2nc(-c3ccc(Oc4ccccc4)cc3)c3c(N)ncnc32)C1 [ibrutinib],-6.5%,37%,0.825%,-3.28%,-14%,-2.83%,–,–,–,–,–,–,–
C[C@@H](Oc1cc(-c2cnn(C3CCNCC3)c2)cnc1N)c1c(Cl)ccc(F)c1Cl [crizotinib],–,–,–,–,–,–,-13%,0%,1.42%,57%,51%,-2.59%,–
